Holding throughout (conditions): read-out: IC50
In assay [1] the target is T1, Peptidyl-prolyl cis-trans isomerase FKBP4 (Homo sapiens, UniProt Q02790).
T1 sequence (Q02790 whole entry): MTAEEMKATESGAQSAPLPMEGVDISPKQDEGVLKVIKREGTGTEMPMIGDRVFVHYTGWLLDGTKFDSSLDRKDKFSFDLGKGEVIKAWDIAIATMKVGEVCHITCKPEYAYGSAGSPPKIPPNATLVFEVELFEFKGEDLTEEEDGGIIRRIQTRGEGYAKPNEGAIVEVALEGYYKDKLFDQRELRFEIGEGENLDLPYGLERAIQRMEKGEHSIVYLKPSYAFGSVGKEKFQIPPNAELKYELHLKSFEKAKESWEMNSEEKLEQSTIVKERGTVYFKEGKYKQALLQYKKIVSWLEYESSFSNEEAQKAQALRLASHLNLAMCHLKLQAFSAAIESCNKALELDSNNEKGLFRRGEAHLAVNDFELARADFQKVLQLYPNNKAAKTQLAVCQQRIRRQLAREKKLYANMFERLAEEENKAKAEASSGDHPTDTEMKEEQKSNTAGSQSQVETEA
The assay is described as follows: Binding affinity to FKBP52 FK1 domain by competitive fluorescence polarization assay. Background: Fluorescence polarisation rises when a labelled molecule tumbles more slowly, as on binding a larger partner.

The target of assay [2] is T2, Peptidyl-prolyl cis-trans isomerase FKBP5 (Homo sapiens, UniProt Q13451).
T2 sequence (Q13451 whole entry): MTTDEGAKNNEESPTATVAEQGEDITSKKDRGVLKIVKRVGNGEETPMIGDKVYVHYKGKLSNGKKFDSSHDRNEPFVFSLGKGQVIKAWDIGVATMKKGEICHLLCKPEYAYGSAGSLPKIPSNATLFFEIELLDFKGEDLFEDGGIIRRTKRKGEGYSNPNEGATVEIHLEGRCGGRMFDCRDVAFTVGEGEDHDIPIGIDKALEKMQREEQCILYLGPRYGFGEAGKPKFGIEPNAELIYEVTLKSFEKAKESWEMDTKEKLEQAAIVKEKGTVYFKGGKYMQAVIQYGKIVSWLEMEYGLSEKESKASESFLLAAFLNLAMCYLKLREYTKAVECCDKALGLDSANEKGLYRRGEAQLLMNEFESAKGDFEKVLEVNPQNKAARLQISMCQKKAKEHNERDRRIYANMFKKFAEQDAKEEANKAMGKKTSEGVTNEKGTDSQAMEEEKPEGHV
Kind of assay: Binding affinity to FKBP51 FK1 domain by competitive fluorescence polarization assay.

The target in assay [3] is Peptidyl-prolyl cis-trans isomerase FKBP1A (Homo sapiens, UniProt P62942). Kind of assay: Binding affinity to FKBP12 by competitive fluorescence polarization assay.
Peptidyl-prolyl cis-trans isomerase FKBP1A, sequence (P62942 whole entry): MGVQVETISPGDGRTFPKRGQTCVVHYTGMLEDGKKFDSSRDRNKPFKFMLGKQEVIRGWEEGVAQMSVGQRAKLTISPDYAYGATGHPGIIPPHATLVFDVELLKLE

Where only a bound is given, the exact number is not on record here.

The values below come from ChEMBL document CHEMBL2057077, “Exploration of pipecolate sulfonamides as binders of the FK506-binding proteins 51 and 52” (J Med Chem, 2012).

As usually defined, the IC50 is the concentration at which inhibition is half-maximal.

In the case of `COc1ccc(CC[C@@H](OC(=O)[C@@H]2CCCCN2S(=O)(=O)c2cccc(-c3ccncn3)c2)c2cccc(OCC(=O)O)c2)cc1OC`, the IC50 in assay [1] was more than 100 µM; in assay [2], more than 100 µM; in assay [3], 9.1 µM.

For `CCC(C)(C)C(=O)C(=O)N1CCCC[C@H]1C(=O)O[C@H](CCc1ccc(OC)c(OC)c1)c1cccc(OCC(=O)O)c1`, the IC50 in assay [1] was determined as 9.37 µM; in assay [2] it was 6.3 µM; in assay [3], 0.114 µM.

For the molecule `COC(=O)c1cc(C(=O)OC)cc(S(=O)(=O)N2CCCC[C@H]2C(=O)O[C@H](CCc2ccc(OC)c(OC)c2)c2cccc(OCC(=O)O)c2)c1`, the IC50 is more than 100 µM in assay [1], more than 100 µM in assay [2] and 4.5 µM in assay [3].

In the case of `COc1ccc(CC[C@@H](OC(=O)[C@@H]2CCCCN2S(=O)(=O)c2cc(C(F)(F)F)cc(C(F)(F)F)c2)c2cccc(OCC(=O)O)c2)cc1OC`, the IC50 in assay [1] was more than 100 µM; in assay [2] it was more than 100 µM; in assay [3], 5.1 µM.

For `COc1ccc(CC[C@@H](OC(=O)[C@@H]2CCCCN2S(=O)(=O)c2cccc([N+](=O)[O-])c2)c2cccc(OCC(=O)O)c2)cc1OC`, the IC50 is more than 100 µM in assay [1], 47.2 µM in assay [2] and 1.9 µM in assay [3].

As to `O=C(OC(CCCc1cccnc1)CCCc1cccnc1)[C@@H]1CCCCN1S(=O)(=O)c1cc(Cl)c(O)c(Cl)c1`, the IC50 in assay [1] stood at 15.1 µM; in assay [2], 9.69 µM; in assay [3], 0.87 µM.

Regarding `COc1ccc(CC[C@@H](OC(=O)[C@@H]2CCCCN2S(=O)(=O)c2cccc(N)c2)c2cccc(OCC(=O)O)c2)cc1OC`, the IC50 was more than 100 µM in assay [1], 45.4 µM in assay [2] and 1.9 µM in assay [3].

With `COc1ccc(CC[C@@H](OC(=O)[C@@H]2CCCCN2S(=O)(=O)c2cccc(F)c2)c2cccc(OCC(=O)O)c2)cc1OC`, the IC50 in assay [1] is 84.5 µM; in assay [2], 54 µM; in assay [3], 1.09 µM.

Regarding `COc1ccc(CC[C@@H](OC(=O)[C@@H]2CCCCN2S(=O)(=O)c2ccc(OC)c(OC)c2)c2cccc(OCC(=O)O)c2)cc1OC`, the values for the IC50 in assay [1], in assay [2] and in assay [3] were more than 100 µM, more than 100 µM and 7.6 µM, respectively.
